Values after ≈ are worked out from the molar mass of the structure shown. Where two headings read alike, the source gives them in different places.
What was measured:
Type in all cases: cell-based
[1] = test system: C. albicans ATCC90028; assay: Antifungal activity test, MIC by broth microdilution (CLSI M27-A3)
How it was run: (§1)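 CLSI broth microdilution in RPMI 1640 with 2% glucose, 0.165 mol/L MOPS, pH 7.0; two-fold DMSO dilutions. MIC = lowest concentration giving 100% inhibition versus growth control.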

[2] = test system: A. flavus ATCC204304; assay: Antifungal activity test, MIC by broth microdilution (CLSI M38-A2)
How it was run: as §1

[3] = test system: A. fumigatus ATCC204305; assay: as above
How it was run: as §1

[4] = test system: red blood cells (5% RBC suspension); assay: Test Example 2-2: in vitro hemolytic activity test (upper limit 200 μmol/L); conditions: read-out: hemolysis IC50
Method: Nephrotoxic potentials of the compounds of the present invention whose X is —N(R^F)—CO—X^1 and X^1 is the group represented by formula (III) and T is —N(R^a5)— were investigated by in vitro hemolytic activity test under the condition that the upper limit was 200 μmol/L as the required concentration to 50% of hemolysis (IC50).
Defibrinated sterile blood was centrifuged at 700×g for 3 minutes and, and the supernatant was removed for 100% of red blood cells. After the cleaning with physiological saline, the washed blood cells was suspended in the medium (Earle's balanced salt sodium, bicarbonate, 0.1 g/L L-glutamine without phenol red), and was diluted by 5% (5% RBC suspension).
The washed blood was diluted by 5% in water for injection (solution of complete hemolysis), and was used as the indication of optical density for complete hemolysis.
The compounds of the present invention solution in DMSO (several and doubling dilutions starting from 10 mmol/L), DMSO as the negative control, and Amphotericin B as the positive control were used, and each 5 μL of these was added in to a well of V-form 96 well type microplate. Finally, the maximum concentration of the compounds of the present invention solution in DMSO was 200 μmol/L by adding 245 μL of the medium or 5% RBC suspension into the well.
Two hundred fifty μL of the solution of complete hemolysis was added into another well and the microplate was incubated at 37° C. in 5% of CO2 concentration for an hour.
After the incubation, each 100 μL of supernatants in wells was collected by centrifugation of the microplate at 300×g for 5 minutes and was located on a well of flat-form 96 well type microplate. An absorbance of each supernatant was measured at wavelength of 540 nm.
Percent hemolysis was calculated by using the followed equation. The required concentration to 50% of hemolysis (IC50) was calculated based on the percent hemolysis. […] Hemolysis (%)=(CR−VM)×100÷(VL−VR) Where:
CR: Absorbance of 5% RBC suspension incubated with the compounds of the present invention solution in DMSO
VM: Absorbance of medium incubated with the compounds of the present invention solution in DMSO
VL: Absorbance of solution of complete hemolysis
VR: Absorbance of 5% RBC suspension incubated with DMSO
The “>200” in the table means above IC50 value exceeded the upper concentration 200 μmol/L.

[5] = Candida albicans, C. albicans ATCC90028, broth microdilution, 35° C., 24-48 hours, 100% inhibition, read-out: MIC
[6] = Aspergillus flavus, A. flavus ATCC204304, broth microdilution, 35° C., 24-48 hours, 100% inhibition, read-out: MIC
[7] = Aspergillus fumigatus, A. fumigatus ATCC204305, broth microdilution, 35° C., 24-48 hours, 100% inhibition, read-out: MIC
[8] = Erythrocyte, 1 h, Test Example 2-2, hemolysis method 200 (upper concentration 200 μmol/L), 5% RBC suspension, 37° C., one hour
[9] = C. albicans ATCC90028, broth microdilution, 35° C., 24-48 hours, 100% inhibition
[10] = A. flavus ATCC204304, broth microdilution, 35° C., 24-48 hours, 100% inhibition
[11] = A. fumigatus ATCC204305, broth microdilution, 35° C., 24-48 hours, 100% inhibition
[12] = Test Example 2-2, hemolysis method 200 (upper concentration 200 μmol/L), 5% RBC suspension, 37° C., one hour

Row | MIC [1, 9] [µg/mL] | MIC [2, 10] [µg/mL] | MIC [3, 11] [µg/mL] | SMILES | IC50 [4, 12] [µM] | other results
1 | – | – | – | CC(=O)NNC(=O)N[C@H]1[C@@H]2C[C@@H](O[C@@H]3O[C@H](C)[C@@H](O)[C@H](N)[C@@H]3O)/C=C/C=C/C=C/C=C/C=C/C=C/C=C/[C@H](C)[C@@H](O)[C@@H](C)[C@H](C)OC(=O)C[C@H](O)C[C@H](O)CC[C@@H](O)[C@H](O)C[C@H](O)C[C@](O)(C[C@@H]1O)O2 [I-19] | – | MIC [1, 5]: 0.25 µg/mL (≈ 0.251 µM); MIC [2, 6]: 1 µg/mL (≈ 1 µM); MIC [3, 7]: 1 µg/mL (≈ 1 µM); IC50 [4, 8]: > 200 µM
2 | 0.25 (≈ 0.255 µM) | 1 (≈ 1.02 µM) | 1 (≈ 1.02 µM) | C[C@@H]1[C@H](O)[C@@H](C)/C=C/C=C/C=C/C=C/C=C/C=C/C=C/[C@H](O[C@@H]2O[C@H](C)[C@@H](O)[C@H](N)[C@@H]2O)C[C@@H]2O[C@](O)(C[C@@H](O)C[C@@H](O)[C@H](O)CC[C@@H](O)C[C@@H](O)CC(=O)O[C@H]1C)C[C@H](O)[C@H]2NC(=O)NNC=O [I-43] | > 200 | –
3 | 0.25 (≈ 0.236 µM) | 0.5 (≈ 0.472 µM) | 1 (≈ 0.945 µM) | C[C@@H]1[C@H](O)[C@@H](C)/C=C/C=C/C=C/C=C/C=C/C=C/C=C/[C@H](O[C@@H]2O[C@H](C)[C@@H](O)[C@H](N)[C@@H]2O)C[C@@H]2O[C@](O)(C[C@@H](O)C[C@@H](O)[C@H](O)CC[C@@H](O)C[C@@H](O)CC(=O)O[C@H]1C)C[C@H](O)[C@H]2NC(=O)NNC(=O)c1cccnc1 [I-45] | > 200 | –
4 | – | – | – | C[C@@H]1[C@H](O)[C@@H](C)/C=C/C=C/C=C/C=C/C=C/C=C/C=C/[C@H](O[C@@H]2O[C@H](C)[C@@H](O)[C@H](N)[C@@H]2O)C[C@@H]2O[C@](O)(C[C@@H](O)C[C@@H](O)[C@H](O)CC[C@@H](O)C[C@@H](O)CC(=O)O[C@H]1C)C[C@H](O)[C@H]2NC(=O)NNC(N)=O [I-60] | – | MIC ([1]; Candida albicans, ATCC90028): 0.125 µg/mL (≈ 0.125 µM); MIC ([2]; Aspergillus flavus, ATCC204304): 0.5 µg/mL (≈ 0.502 µM); MIC ([3]; Aspergillus fumigatus, ATCC204305): 0.5 µg/mL (≈ 0.502 µM); IC50 ([4]; Erythrocyte, 1 h): > 200 µM
5 | 0.25 (≈ 0.247 µM) | 0.5 (≈ 0.494 µM) | 1 (≈ 0.988 µM) | C[C@@H]1[C@H](O)[C@@H](C)/C=C/C=C/C=C/C=C/C=C/C=C/C=C/[C@H](O[C@@H]2O[C@H](C)[C@@H](O)[C@H](N)[C@@H]2O)C[C@@H]2O[C@](O)(C[C@@H](O)C[C@@H](O)[C@H](O)CC[C@@H](O)C[C@@H](O)CC(=O)O[C@H]1C)C[C@H](O)[C@H]2NC(=O)NNC(=O)NO [I-218] | > 200 | –
6 | 0.5 (≈ 0.474 µM) | 0.5 (≈ 0.474 µM) | 1 (≈ 0.948 µM) | C[C@@H]1[C@H](O)[C@@H](C)/C=C/C=C/C=C/C=C/C=C/C=C/C=C/[C@H](O[C@@H]2O[C@H](C)[C@@H](O)[C@H](N)[C@@H]2O)C[C@@H]2O[C@](O)(C[C@@H](O)C[C@@H](O)[C@H](O)CC[C@@H](O)C[C@@H](O)CC(=O)O[C@H]1C)C[C@H](O)[C@H]2NC(=O)NNC(=O)C[C@H](O)CO [I-237] | > 200 | –
7 | 0.5 (≈ 0.474 µM) | 0.5 (≈ 0.474 µM) | 1 (≈ 0.948 µM) | C[C@@H]1[C@H](O)[C@@H](C)/C=C/C=C/C=C/C=C/C=C/C=C/C=C/[C@H](O[C@@H]2O[C@H](C)[C@@H](O)[C@H](N)[C@@H]2O)C[C@@H]2O[C@](O)(C[C@@H](O)C[C@@H](O)[C@H](O)CC[C@@H](O)C[C@@H](O)CC(=O)O[C@H]1C)C[C@H](O)[C@H]2NC(=O)NNC(=O)C(CO)CO [I-240] | > 200 | –
8 | – | – | – | C[C@@H]1[C@H](O)[C@@H](C)/C=C/C=C/C=C/C=C/C=C/C=C/C=C/[C@H](O[C@@H]2O[C@H](C)[C@@H](O)[C@H](N)[C@@H]2O)C[C@@H]2O[C@](O)(C[C@@H](O)C[C@@H](O)[C@H](O)CC[C@@H](O)C[C@@H](O)CC(=O)O[C@H]1C)C[C@H](O)[C@H]2NC(=O)NNC(=O)[C@H](O)[C@@H](O)[C@H](O)[C@H](O)CO [I-242] | > 200 | –
9 | – | – | – | C[C@@H]1[C@H](O)[C@@H](C)/C=C/C=C/C=C/C=C/C=C/C=C/C=C/[C@H](O[C@@H]2O[C@H](C)[C@@H](O)[C@H](N)[C@@H]2O)C[C@@H]2O[C@](O)(C[C@@H](O)C[C@@H](O)[C@H](O)CC[C@@H](O)C[C@@H](O)CC(=O)O[C@H]1C)C[C@H](O)[C@H]2NC(=O)NNC(=O)CO [I-243] | > 200 | –
10 | – | – | – | C[C@@H]1[C@H](O)[C@@H](C)/C=C/C=C/C=C/C=C/C=C/C=C/C=C/[C@H](O[C@@H]2O[C@H](C)[C@@H](O)[C@H](N)[C@@H]2O)C[C@@H]2O[C@](O)(C[C@@H](O)C[C@@H](O)[C@H](O)CC[C@@H](O)C[C@@H](O)CC(=O)O[C@H]1C)C[C@H](O)[C@H]2NC(=O)NNC(=O)[C@H](O)C(C)(C)CO [I-245] | > 200 | –
11 | – | – | – | C[C@@H]1[C@H](O)[C@@H](C)/C=C/C=C/C=C/C=C/C=C/C=C/C=C/[C@H](O[C@@H]2O[C@H](C)[C@@H](O)[C@H](N)[C@@H]2O)C[C@@H]2O[C@](O)(C[C@@H](O)C[C@@H](O)[C@H](O)CC[C@@H](O)C[C@@H](O)CC(=O)O[C@H]1C)C[C@H](O)[C@H]2NC(=O)NNS(=O)(=O)c1nnc[nH]1 [I-246] | – | IC50 ([4]; Erythrocyte, 1 h): > 200 µM
12 | – | – | – | C[C@@H]1[C@H](O)[C@@H](C)/C=C/C=C/C=C/C=C/C=C/C=C/C=C/[C@H](O[C@@H]2O[C@H](C)[C@@H](O)[C@H](N)[C@@H]2O)C[C@@H]2O[C@](O)(C[C@@H](O)C[C@@H](O)[C@H](O)CC[C@@H](O)C[C@@H](O)CC(=O)O[C@H]1C)C[C@H](O)[C@H]2NC(=O)NNC(=O)C1(CO)CC1 [I-247] | > 200 | –
13 | – | – | – | C[C@@H]1[C@H](O)[C@@H](C)/C=C/C=C/C=C/C=C/C=C/C=C/C=C/[C@H](O[C@@H]2O[C@H](C)[C@@H](O)[C@H](N)[C@@H]2O)C[C@@H]2O[C@](O)(C[C@@H](O)C[C@@H](O)[C@H](O)CC[C@@H](O)C[C@@H](O)CC(=O)O[C@H]1C)C[C@H](O)[C@H]2NC(=O)NNC(=O)C[C@@H](O)C(=O)O [I-253] | > 200 | –
14 | – | – | – | C[C@@H]1[C@H](O)[C@@H](C)/C=C/C=C/C=C/C=C/C=C/C=C/C=C/[C@H](O[C@@H]2O[C@H](C)[C@@H](O)[C@H](N)[C@@H]2O)C[C@@H]2O[C@](O)(C[C@@H](O)C[C@@H](O)[C@H](O)CC[C@@H](O)C[C@@H](O)CC(=O)O[C@H]1C)C[C@H](O)[C@H]2NC(=O)NNC(=O)C1(C(N)=O)CC1 [I-256] | > 200 | –
15 | – | – | – | C[C@@H]1[C@H](O)[C@@H](C)/C=C/C=C/C=C/C=C/C=C/C=C/C=C/[C@H](O[C@@H]2O[C@H](C)[C@@H](O)[C@H](N)[C@@H]2O)C[C@@H]2O[C@](O)(C[C@@H](O)C[C@@H](O)[C@H](O)CC[C@@H](O)C[C@@H](O)CC(=O)O[C@H]1C)C[C@H](O)[C@H]2NC(=O)NNC(=O)C1(O)CC1 [I-257] | > 200 | –
16 | 0.5 (≈ 0.475 µM) | 0.5 (≈ 0.475 µM) | 1 (≈ 0.949 µM) | C[C@@H]1[C@H](O)[C@@H](C)/C=C/C=C/C=C/C=C/C=C/C=C/C=C/[C@H](O[C@@H]2O[C@H](C)[C@@H](O)[C@H](N)[C@@H]2O)C[C@@H]2O[C@](O)(C[C@@H](O)C[C@@H](O)[C@H](O)CC[C@@H](O)C[C@@H](O)CC(=O)O[C@H]1C)C[C@H](O)[C@H]2NC(=O)NNC(=O)CCC(=O)O [I-261] | > 200 | –
17 | – | – | – | C[C@@H]1[C@H](O)[C@@H](C)/C=C/C=C/C=C/C=C/C=C/C=C/C=C/[C@H](O[C@@H]2O[C@H](C)[C@@H](O)[C@H](N)[C@@H]2O)C[C@@H]2O[C@](O)(C[C@@H](O)C[C@@H](O)[C@H](O)CC[C@@H](O)C[C@@H](O)CC(=O)O[C@H]1C)C[C@H](O)[C@H]2NC(=O)NNC(=O)C1(S(C)(=O)=O)CC1 [I-263] | – | IC50 ([4]; Erythrocyte, 1 h): > 200 µM
18 | – | – | – | C[C@@H]1[C@H](O)[C@@H](C)/C=C/C=C/C=C/C=C/C=C/C=C/C=C/[C@H](O[C@@H]2O[C@H](C)[C@@H](O)[C@H](N)[C@@H]2O)C[C@@H]2O[C@](O)(C[C@@H](O)C[C@@H](O)[C@H](O)CC[C@@H](O)C[C@@H](O)CC(=O)O[C@H]1C)C[C@H](O)[C@H]2NC(=O)NNC(CO)CO [I-272] | – | MIC [1, 5]: 0.25 µg/mL (≈ 0.243 µM); MIC [2, 6]: 0.5 µg/mL (≈ 0.487 µM); MIC [3, 7]: 0.5 µg/mL (≈ 0.487 µM); IC50 [4, 8]: > 200 µM
